The target in test [1] is MLCK (myosin light chain kinase, smooth muscle) (Homo sapiens, UniProt Q15746, N1725A). Nature of the test: SPR. It counts as binding.
In test [2] the target is MLCK (myosin light chain kinase, smooth muscle) (Homo sapiens, UniProt Q15746). Nature of the test: SPR. It counts as binding.

This is an account of results in publication PMC12335474 (Communications Biology, 2025).

Chain of MLCK (myosin light chain kinase, smooth muscle) (Homo sapiens, UniProt Q15746) (Q15746 whole entry): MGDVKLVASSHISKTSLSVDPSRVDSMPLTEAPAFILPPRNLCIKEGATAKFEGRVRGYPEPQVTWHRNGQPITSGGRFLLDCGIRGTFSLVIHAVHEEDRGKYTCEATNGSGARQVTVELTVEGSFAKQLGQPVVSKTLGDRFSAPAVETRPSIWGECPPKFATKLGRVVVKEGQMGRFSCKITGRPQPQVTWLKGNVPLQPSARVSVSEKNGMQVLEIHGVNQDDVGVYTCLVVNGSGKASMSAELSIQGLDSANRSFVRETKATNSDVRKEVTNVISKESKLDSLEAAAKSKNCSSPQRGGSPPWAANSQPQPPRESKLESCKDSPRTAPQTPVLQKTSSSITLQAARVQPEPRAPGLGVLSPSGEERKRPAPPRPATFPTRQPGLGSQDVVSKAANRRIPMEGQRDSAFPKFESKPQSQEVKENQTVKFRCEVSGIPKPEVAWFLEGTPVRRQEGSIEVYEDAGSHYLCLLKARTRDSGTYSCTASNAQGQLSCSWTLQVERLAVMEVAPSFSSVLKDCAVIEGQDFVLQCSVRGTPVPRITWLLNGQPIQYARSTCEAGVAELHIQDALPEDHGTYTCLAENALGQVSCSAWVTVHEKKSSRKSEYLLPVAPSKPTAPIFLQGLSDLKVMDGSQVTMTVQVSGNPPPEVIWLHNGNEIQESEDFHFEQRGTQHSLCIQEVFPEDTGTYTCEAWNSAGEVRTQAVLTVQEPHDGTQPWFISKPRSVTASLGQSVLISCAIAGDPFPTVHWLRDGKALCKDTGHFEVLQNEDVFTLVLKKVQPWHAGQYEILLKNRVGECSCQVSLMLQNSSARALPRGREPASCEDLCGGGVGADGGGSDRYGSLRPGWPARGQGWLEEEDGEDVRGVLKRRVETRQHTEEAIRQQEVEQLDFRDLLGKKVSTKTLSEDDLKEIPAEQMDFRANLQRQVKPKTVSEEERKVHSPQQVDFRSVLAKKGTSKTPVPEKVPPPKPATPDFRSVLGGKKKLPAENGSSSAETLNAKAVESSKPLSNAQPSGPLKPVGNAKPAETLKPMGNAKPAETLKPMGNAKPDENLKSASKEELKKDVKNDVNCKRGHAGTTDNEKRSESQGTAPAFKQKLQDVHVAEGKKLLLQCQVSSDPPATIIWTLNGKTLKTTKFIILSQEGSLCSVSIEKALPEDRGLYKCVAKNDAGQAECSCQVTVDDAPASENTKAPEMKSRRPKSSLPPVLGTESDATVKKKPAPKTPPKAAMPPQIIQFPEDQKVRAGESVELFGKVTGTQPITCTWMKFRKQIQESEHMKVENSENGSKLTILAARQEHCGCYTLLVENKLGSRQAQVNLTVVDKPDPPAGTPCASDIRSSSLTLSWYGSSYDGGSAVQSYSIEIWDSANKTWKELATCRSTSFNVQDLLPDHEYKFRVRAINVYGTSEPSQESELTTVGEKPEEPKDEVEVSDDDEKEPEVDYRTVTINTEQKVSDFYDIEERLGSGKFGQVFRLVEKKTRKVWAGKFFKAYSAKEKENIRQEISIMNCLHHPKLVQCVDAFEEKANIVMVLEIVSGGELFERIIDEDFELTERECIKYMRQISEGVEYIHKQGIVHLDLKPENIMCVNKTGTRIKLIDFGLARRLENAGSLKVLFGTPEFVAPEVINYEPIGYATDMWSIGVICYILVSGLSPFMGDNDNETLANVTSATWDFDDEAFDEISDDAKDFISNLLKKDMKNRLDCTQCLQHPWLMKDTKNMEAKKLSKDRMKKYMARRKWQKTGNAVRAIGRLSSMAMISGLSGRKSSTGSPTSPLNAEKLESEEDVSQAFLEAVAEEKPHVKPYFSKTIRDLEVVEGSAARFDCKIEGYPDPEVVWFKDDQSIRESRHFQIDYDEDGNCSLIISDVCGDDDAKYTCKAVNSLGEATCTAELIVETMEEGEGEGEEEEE
Chain of MLCK (myosin light chain kinase, smooth muscle) (Homo sapiens, UniProt Q15746, N1725A) (Q15746 923-1914 N1725A): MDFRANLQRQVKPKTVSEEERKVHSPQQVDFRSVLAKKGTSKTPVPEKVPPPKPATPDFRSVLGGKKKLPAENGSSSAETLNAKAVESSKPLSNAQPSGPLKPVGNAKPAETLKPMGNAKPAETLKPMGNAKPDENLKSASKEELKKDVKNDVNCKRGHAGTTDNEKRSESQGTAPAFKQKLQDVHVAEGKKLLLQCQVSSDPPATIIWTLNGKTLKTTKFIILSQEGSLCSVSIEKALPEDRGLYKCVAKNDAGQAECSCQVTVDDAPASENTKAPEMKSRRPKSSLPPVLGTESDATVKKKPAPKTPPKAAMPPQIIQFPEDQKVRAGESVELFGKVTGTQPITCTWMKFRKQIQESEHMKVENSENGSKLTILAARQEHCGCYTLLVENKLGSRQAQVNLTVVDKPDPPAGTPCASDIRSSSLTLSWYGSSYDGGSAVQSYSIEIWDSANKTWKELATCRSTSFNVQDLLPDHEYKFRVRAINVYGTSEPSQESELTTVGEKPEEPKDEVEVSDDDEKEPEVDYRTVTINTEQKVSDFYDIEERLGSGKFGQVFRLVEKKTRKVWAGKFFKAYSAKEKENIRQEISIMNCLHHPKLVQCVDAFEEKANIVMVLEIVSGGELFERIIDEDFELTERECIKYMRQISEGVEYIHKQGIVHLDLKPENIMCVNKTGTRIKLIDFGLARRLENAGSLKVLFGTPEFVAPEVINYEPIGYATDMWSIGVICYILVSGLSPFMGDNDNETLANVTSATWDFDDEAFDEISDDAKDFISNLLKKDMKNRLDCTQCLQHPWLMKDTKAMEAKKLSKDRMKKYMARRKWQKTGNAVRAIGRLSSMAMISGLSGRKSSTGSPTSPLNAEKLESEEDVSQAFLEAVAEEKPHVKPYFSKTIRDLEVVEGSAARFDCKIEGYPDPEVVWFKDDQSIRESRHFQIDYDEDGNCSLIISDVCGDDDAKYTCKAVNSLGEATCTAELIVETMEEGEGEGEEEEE

Regarding `O=c1[nH]c(=O)c2[nH]c(=O)[nH]c2[nH]1` [UA, uric acid], the Kd in test [1] was 312 µM; in test [2], 257 µM.
